This is an account of results in patent US20240075093A1, “COMPOSITIONS AND METHODS OF TREATING A PI3K MEDIATED DISEASE” (VIRGINIA TECH INTELLECTUAL PROPERTIES, INC., priority 2020, published 2024).

Data set [1] relates to astrocytes. Briefly: MTS cell viability assay. The class given is cell-based, human. The following applies: 20 uM TGX-221 and 50 uM TMZ, 4 days. As to the method: (§1) Cell viability was measured by the MTS assay. P values were determined using the student t test or one-way ANOVA. Error bars represent three independent experiments.
(FIG. 46A) The effect of the αCT1/GSK/TMZ combo in VTC-103 cells. […] (FIG. 46B) The effect of the αCT1/GSK/TMZ combo in LN229 cells. (FIG. 46C) EOB scores of drug combinations in VTC-103 and LN229 cells. […] (FIG. 46E) EOB scores of drug combinations in astrocytes. One-way ANOVA with Dunnett test for correction of multiple comparisons or Student's t test was used to determine statistical significance. *: P<0.05; ns: not significant. Drug combinations with strong synergistic effect were marked in red.
Cell viability was determined by the MTS cell viability assay (Promega) as described previously 21,24-27. In brief, 250 to 1,000 cells were plated in the wells of a 96-well plate-based upon the cell growth rate. Because the drug treatment usually takes 6-7 days, fast-growing cells could be over-grown if plated at a high cell density. […] At each hour time point, the absorbance at 490 nm was measured using a FilterMax F3 microplate reader (Molecular Devices, LLC) according to the manufacturer's instructions. Percent cell viability was obtained by dividing the absorbance of treatment groups to those of untreated and respective vehicle control groups.
(In general: Formazan colour is commonly taken as a measure of viable cells.)

Data set [2] has as its system LN229/GSCs. Nature of the data set: wound-healing (migration) assay. The class given is cell-based. The following applies: 8 μM, 24 hours. The procedure: (§2) (FIG. 8A) Wound-healing assay. Cells were plated confluently and then treated with PI3K isoform-selective inhibitors at 8 μM for 24 hours. Cells were imaged at 0- and 24-hour time point. Images of 24-hour time point are shown. Scale bar: […]. (FIG. 8B-8D) Quantification of migration distance. Images from three different areas were analyzed using Image J. Migration distances were obtained by subtracting 24-hour measurements with those of 0-hour.

In data set [3] the test system is SF295 cells. Nature of the data set: wound-healing (migration) assay. The class given is cell-based. The following applies: 8 μM, 24 hours. As to the method:
as §2

In data set [4] the test system is tumor growth in mice. Nature of the data set: GBM tumor growth in mice. The class given is in vivo.
In data set [5] the target is p110δ (Homo sapiens, UniProt O00329). Nature of the data set: PI3K subunit activity ELISA. The format is biochemical. The following applies: 100 nM. The procedure:
(§3) Relative activity is the ratio of respective treated groups to their non-treated controls.
(§4) Applicant also included a control scramble peptide containing the antennapedia sequence followed by the amino acid sequence of Ante-Selectide-18 randomly scrambled. […] Applicant reports that this drug is not effective at inhibiting the kinase activity of p110b or other PI3K subunits at 100 nM, showing the promise of the Ante-Selectide-18 peptide as a potent selective p110b inhibitor at a low dose.

The target in data set [6] is p110γ (Homo sapiens, UniProt P48736). Nature of the data set: PI3K subunit activity ELISA. The class given is biochemical. The following applies: 100 nM. As to the method:
as §3, §4
(In an ELISA, binding on a coated surface is turned into a signal by an enzyme label.)

In data set [7] the target is p110c (Homo sapiens, UniProt P42336). Nature of the data set: PI3K subunit activity ELISA. The class given is biochemical. The following applies: 100 nM. The procedure: as §3, §4
p110c, sequence (P42336 whole entry): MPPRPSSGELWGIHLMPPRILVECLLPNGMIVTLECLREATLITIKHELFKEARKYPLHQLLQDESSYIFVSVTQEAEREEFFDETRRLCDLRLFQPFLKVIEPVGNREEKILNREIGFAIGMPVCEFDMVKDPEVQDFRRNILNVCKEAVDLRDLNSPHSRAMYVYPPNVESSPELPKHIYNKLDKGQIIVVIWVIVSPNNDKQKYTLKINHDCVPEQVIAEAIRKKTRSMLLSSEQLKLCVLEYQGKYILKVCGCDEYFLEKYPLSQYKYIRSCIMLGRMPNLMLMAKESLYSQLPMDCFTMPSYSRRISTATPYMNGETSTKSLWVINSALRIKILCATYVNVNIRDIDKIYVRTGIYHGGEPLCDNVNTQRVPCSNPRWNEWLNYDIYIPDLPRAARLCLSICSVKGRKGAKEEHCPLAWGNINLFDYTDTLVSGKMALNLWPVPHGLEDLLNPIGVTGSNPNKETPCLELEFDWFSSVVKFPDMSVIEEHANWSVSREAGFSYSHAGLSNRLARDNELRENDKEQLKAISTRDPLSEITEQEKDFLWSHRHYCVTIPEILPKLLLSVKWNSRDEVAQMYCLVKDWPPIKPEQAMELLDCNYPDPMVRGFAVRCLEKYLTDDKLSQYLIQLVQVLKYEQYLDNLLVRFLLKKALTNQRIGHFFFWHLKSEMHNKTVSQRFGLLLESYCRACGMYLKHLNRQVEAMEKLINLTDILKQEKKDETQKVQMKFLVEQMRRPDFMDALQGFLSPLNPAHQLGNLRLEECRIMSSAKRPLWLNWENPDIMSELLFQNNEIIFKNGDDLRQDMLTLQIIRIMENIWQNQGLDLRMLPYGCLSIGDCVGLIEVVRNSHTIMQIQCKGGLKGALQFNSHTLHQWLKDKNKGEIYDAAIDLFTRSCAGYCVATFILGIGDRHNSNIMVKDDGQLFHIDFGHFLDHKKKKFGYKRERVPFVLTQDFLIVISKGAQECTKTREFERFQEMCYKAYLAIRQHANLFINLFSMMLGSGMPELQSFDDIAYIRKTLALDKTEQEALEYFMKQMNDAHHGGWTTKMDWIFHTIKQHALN
The test system of data set [8] is SF295 cells. Nature of the data set: MTS cell viability assay. The class given is cell-based. The following applies: 20 uM TGX-221 and 50 uM TMZ, 4 days. As to the method: (FIG. 12A) p110βC2in. CPP: cell-penetrating peptide. Simulated p110βC2in (rainbow as represented in greyscale) is shown. (FIG. 12B) FITC-p110βC2in in LN229/GSCs was imaged using a fluorescence microscope. Upper: FITC; lower: bright view. (FIG. 12C) PI3K/AKT activity affected by 100 μM p110βC2in (+) or C2Scramble-1 (−). (FIG. 12D) MTS Cell viability assay. Cells were treated with 50 μM peptides for 4 days. Student t test was used to determine P values.
as §1
This scheme has been repeated in experiments presented hereafter. Cell viability was determined using the MTS viability assay. Percentages of cell viability were obtained by normalizing the MTS readings of treatment groups to that of DMSO group. (FIG. 34B) Scores of Excess Over Bliss (EOB) calculated using the Bliss Independence model. The drug combination is synergistic if EOB is more than 0%, additive if EOB equals to 0%, or antagonistic if EOB is less than 0%. […] (FIG. 34D) EOB scores of drug combinations in LN229 and VTC-001 cells. (FIG. 34E) Caspase 3/7 activity in VTC-103 and VTC-001 cells. The activity of cleaved caspase 3/7 (active) was determined using a luminescence assay. Shown are luminescence readings. (FIG. 34F) EOB scores of drug combinations in VTC-103 and VTC-001 cells. […] SF295 cells were subcutaneously injected into immuno-deficient mice. […] Tumor volumes are shown. […] Cell viability was determined using the MTS viability assay. Percentages of cell viability were obtained by normalizing the MTS readings of treatment groups to that of shNS group. […]
Cell viability was determined by the MTS cell viability assay (Promega) as described previously 21,24-27. […] At each hour time point, the absorbance at 490 nm was measured using a FilterMax F3 microplate reader (Molecular Devices, LLC) according to the manufacturer's instructions. Percent cell viability was obtained by dividing the absorbance of treatment groups to those of untreated and respective vehicle control groups.

Molecules are shown by their SMILES.

p110δ, sequence (O00329 whole entry): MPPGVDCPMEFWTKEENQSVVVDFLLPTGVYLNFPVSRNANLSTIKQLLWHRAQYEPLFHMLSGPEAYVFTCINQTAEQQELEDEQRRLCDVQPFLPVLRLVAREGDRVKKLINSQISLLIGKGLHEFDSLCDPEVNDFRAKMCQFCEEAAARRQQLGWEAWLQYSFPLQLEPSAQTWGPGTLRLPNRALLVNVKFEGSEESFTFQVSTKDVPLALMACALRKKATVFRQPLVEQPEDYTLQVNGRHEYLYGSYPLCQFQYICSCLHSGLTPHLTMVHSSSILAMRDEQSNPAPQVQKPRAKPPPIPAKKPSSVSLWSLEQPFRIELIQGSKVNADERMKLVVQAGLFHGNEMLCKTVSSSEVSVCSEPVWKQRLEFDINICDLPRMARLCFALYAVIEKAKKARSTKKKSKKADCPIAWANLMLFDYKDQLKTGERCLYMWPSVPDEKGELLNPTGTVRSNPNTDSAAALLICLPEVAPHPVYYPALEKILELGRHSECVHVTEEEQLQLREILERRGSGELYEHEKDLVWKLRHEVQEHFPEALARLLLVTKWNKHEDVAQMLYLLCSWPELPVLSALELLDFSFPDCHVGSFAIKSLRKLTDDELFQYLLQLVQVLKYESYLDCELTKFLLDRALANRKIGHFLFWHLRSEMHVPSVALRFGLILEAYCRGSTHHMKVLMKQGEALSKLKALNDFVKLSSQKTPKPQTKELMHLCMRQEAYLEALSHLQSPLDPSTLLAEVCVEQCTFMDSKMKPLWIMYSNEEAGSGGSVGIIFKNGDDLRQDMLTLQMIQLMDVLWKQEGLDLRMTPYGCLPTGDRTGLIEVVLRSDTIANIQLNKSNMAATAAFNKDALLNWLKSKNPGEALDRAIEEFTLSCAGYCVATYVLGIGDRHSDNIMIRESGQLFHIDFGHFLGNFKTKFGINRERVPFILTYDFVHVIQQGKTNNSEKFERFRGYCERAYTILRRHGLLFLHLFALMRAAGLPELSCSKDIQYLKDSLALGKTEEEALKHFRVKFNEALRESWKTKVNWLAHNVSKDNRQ
p110δ, sequence (P27986 whole entry partner): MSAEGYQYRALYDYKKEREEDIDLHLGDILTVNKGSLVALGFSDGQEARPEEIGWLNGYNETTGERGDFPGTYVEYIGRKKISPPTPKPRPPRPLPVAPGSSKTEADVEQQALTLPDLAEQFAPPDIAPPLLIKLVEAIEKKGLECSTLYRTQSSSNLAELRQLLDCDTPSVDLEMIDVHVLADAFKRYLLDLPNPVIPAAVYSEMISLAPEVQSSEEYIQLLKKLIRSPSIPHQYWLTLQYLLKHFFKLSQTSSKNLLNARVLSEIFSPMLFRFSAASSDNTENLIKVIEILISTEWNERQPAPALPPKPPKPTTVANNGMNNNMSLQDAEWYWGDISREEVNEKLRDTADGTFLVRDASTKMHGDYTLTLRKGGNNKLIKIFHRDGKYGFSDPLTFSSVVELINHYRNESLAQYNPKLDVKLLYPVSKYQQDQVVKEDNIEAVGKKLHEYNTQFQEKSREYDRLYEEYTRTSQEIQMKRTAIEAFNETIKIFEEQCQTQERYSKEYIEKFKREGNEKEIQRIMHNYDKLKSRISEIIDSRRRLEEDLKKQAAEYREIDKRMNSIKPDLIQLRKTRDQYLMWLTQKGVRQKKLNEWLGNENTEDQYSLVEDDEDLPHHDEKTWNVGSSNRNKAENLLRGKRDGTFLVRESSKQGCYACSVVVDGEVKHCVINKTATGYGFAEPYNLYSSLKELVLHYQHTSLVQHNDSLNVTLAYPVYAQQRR
p110γ, sequence (P48736 whole entry): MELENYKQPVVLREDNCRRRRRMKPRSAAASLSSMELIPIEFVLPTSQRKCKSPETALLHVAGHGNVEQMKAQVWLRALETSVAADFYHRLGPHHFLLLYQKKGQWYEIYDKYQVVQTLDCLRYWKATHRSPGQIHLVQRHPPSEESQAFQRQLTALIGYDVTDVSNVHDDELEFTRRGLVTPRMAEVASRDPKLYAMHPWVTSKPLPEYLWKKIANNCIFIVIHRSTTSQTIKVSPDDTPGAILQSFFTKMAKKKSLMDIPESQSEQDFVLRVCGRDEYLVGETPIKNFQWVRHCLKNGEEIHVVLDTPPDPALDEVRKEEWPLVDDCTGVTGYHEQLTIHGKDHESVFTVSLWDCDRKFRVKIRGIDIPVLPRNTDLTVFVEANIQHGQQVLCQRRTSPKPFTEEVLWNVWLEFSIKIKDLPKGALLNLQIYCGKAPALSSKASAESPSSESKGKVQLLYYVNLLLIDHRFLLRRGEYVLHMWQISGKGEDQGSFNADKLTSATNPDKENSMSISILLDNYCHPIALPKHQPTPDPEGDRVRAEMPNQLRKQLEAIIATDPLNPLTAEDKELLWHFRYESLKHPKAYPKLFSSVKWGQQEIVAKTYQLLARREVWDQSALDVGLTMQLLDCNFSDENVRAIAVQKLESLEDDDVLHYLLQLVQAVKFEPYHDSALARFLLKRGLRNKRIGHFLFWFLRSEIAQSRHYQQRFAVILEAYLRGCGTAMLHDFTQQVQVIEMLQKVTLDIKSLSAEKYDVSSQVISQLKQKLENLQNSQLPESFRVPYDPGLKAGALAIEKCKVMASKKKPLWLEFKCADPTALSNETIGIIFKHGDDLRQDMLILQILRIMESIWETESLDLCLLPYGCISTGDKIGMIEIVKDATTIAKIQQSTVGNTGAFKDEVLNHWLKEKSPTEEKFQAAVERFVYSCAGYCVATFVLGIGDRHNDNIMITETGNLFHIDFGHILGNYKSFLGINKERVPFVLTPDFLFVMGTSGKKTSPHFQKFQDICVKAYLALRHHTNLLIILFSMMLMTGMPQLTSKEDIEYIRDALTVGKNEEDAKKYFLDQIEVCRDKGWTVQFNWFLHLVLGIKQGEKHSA

As to `Cc1cc(C(C)Nc2ccccc2)c2nc(N3CCOCC3)cc(=O)n2c1` (centres unmarked) [TGX-221], the “effect of TGX-221 plus TMZ combination on astrocytes” value in data set [1] is on record as “did not harm astrocytes”. Further, the cell migration result in data set [2] and in data set [3] was “inhibited the migration” in each case. For the same molecule, the “tumor growth in mice” value in data set [4] is on record as “slow down tumor growth”. Also, in data set [5], the “activity of PI3K subunit p110δ” value was “not effective”. Also, in data set [6], the “activity of PI3K subunit p110γ” value is “not effective”. The “activity of PI3K subunit p110c” value in data set [7] is “not effective”. The TMZ sensitivity entry in data set [8] is “increased TMZ sensitivity”.
